The record followed here is the SangsterLogP compilation.

Broadly, the logP is a log measure of how a compound divides between an organic and an aqueous phase. In the case of `Cc1c(CNc2c(Cl)cccc2Cl)cnc2nc(N)nc(N)c12`, the log partition coefficient (logP) is 2. `CC(=O)c1cccc(NCc2cnc3nc(N)nc(N)c3c2C)c1` showed a lipophilicity (logP) of 1.46. Compound `Cc1cc(NCc2cnc3nc(N)nc(N)c3c2C)ccc1Cl` registered a logP of 2.03. For `Cc1ccc(NCc2cnc3nc(N)nc(N)c3c2C)cc1Cl` the value was 2.03; for `Cc1ccccc1NCc1cnc2nc(N)nc(N)c2c1C`, 1.98; for `CC(=O)c1ccc(NCc2cnc3nc(N)nc(N)c3c2C)cc1`, 1.45. Turning to `Cc1c(CNc2cccc(Cl)c2Cl)cnc2nc(N)nc(N)c12`, the logP is 2.1. For `Cc1c(CNc2ccccc2)cnc2nc(N)nc(N)c12` the value was 2.02. In the case of `Cc1c(CNc2ccc(Cl)c(Cl)c2)cnc2nc(N)nc(N)c12` it was 2.06. `Cc1cccc(Cl)c1NCc1cnc2nc(N)nc(N)c2c1C` came in with a lipophilicity (logP) of 2.05. On to `Cc1c(CNc2ccc(Cl)cc2)cnc2nc(N)nc(N)c12`, for which the logP turned out to be 2.03. For `CCOc1ccccc1NCc1cnc2nc(N)nc(N)c2c1C` the value was 2.07. In the case of `Cc1c(Cl)cccc1NCc1cnc2nc(N)nc(N)c2c1C` it was 2.04; in that of `Cc1cc(C)cc(NCc2cnc3nc(N)nc(N)c3c2C)c1`, 2.11.

As for `Cc1ccc(C)c(NCc2cnc3nc(N)nc(N)c3c2C)c1`, the logP is 2.29.
